Experiment [1] has as its target T1, Cephalosporinase Serratia W-8 (Serratia marcescens, UniProt P18539).
T1 construct: W-8; endogenous in cells; host or cells: Serratia W-8
Briefly: Resistance against β-lactamase, iodometric assay. The class given is biochemical. As to conditions: activity of control Cephalorigine assumed as 100. The method, then:
(§1) The resistant activity against β-lactamase of the product obtained above was as shown in Table 3 in which comparisons are shown:
(§2) The resistance of each compound against β-lactamase was determined by the iodometric assay method.

The target of experiment [2] is T2, Cephalosporinase Pseudomonas aeruginosa TN 918 (Pseudomonas aeruginosa, UniProt P24735).
T2 construct: TN 918; endogenous in cells; host or cells: Pseudomonas aeruginosa TN 918
The experiment is described as follows: Resistance against β-lactamase, iodometric assay. The class given is biochemical. As to conditions: activity of control Cephalorigine assumed as 100. The method, then: as §1, §2

Experiment [3] deals with Penicillinase E. coli TK-3. Briefly: Resistance against β-lactamase, iodometric assay. Format: biochemical. To be noted: activity of control potassium Penicillin G assumed as 100. The method, then:
as §1, §2

The test system of experiment [4] is Acinetobacter calcoaceticus A-6. Briefly: MIC by plate method. The class given is cell-based. As to conditions: Heart Infusion agar pH 7.4, inoculum 10^4 cells per plate (10^6 cells/ml). The method, then:
(§3) The minimum inhibitory concentration (MIC) was determined by the plate method disclosed in "Chemotherapy" (Japan), Vol. 16, (1968), pages 98-99. The culture medium used was a Heart Infusion agar (pH 7.4). The number of the cells per plate used in the inoculum was 10^4 (10^6 cells/ml).

Experiment [5] concerns Citrobacter spp Toyama Citizen No. 31. Briefly: MIC by plate method. The class given is cell-based. To be noted: Heart Infusion agar pH 7.4, inoculum 10^4 cells per plate (10^6 cells/ml). On the procedure:
as §3

In experiment [6] the test system is Serratia marcescens W-8. Briefly: MIC by plate method. Format: cell-based. The arrangement: unit not given here. To be noted: Heart Infusion agar pH 7.4, inoculum 10^4 cells per plate (10^6 cells/ml). On the procedure: as §3
Experiment [7] deals with Enterobacter cloacae IID 977. The experiment is described as follows: MIC by plate method. The class given is cell-based. The arrangement: unit not given here. As to conditions: Heart Infusion agar pH 7.4, inoculum 10^4 cells per plate (10^6 cells/ml). On the procedure: as §3
Experiment [8] deals with Proteus vulgaris GN 76 (Cephalosporinase-producing bacterium). Briefly: MIC by plate method. The class given is cell-based. Set-up: unit not given here. To be noted: Heart Infusion agar pH 7.4, inoculum 10^4 cells per plate (10^6 cells/ml). The method, then: as §3
Experiment [9] concerns Klebsiella pneumoniae Y-50. The experiment is described as follows: MIC by plate method. The arrangement: unit not given here. As to conditions: Heart Infusion agar pH 7.4, inoculum 10^4 cells per plate (10^6 cells/ml). The class given is cell-based. On the procedure: as §3
In experiment [10] the test system is Escherichia coli NIHJ. Briefly: MIC by plate method. Set-up: unit not given here. To be noted: Heart Infusion agar pH 7.4, inoculum 10^4 cells per plate (10^6 cells/ml). The class given is cell-based. The method, then: as §3
In experiment [11] the test system is Staphylococcus aureus F-19 (Penicillinase-producing bacterium). The experiment is described as follows: MIC by plate method. The class given is cell-based. The arrangement: unit not given here. As to conditions: Heart Infusion agar pH 7.4, inoculum 10^4 cells per plate (10^6 cells/ml). The method, then:
as §3

Experiment [12] has as its system Citrobacter freundii GN 346 (Cephalosporinase-producing bacterium). The experiment is described as follows: MIC by plate method. To be noted: Heart Infusion agar pH 7.4, inoculum 10^4 cells per plate (10^6 cells/ml). The arrangement: unit not given here. The class given is cell-based. On the procedure:
as §3

The subject of experiment [13] is Pseudomonas aeruginosa IFO-3445. Briefly: MIC by plate method. The class given is cell-based. The arrangement: unit not given here. To be noted: Heart Infusion agar pH 7.4, inoculum 10^4 cells per plate (10^6 cells/ml). On the procedure:
as §3

Each structure is given as a SMILES string. Where only a bound is given, the exact number is not on record here.

T2 sequence (P24735 27-397): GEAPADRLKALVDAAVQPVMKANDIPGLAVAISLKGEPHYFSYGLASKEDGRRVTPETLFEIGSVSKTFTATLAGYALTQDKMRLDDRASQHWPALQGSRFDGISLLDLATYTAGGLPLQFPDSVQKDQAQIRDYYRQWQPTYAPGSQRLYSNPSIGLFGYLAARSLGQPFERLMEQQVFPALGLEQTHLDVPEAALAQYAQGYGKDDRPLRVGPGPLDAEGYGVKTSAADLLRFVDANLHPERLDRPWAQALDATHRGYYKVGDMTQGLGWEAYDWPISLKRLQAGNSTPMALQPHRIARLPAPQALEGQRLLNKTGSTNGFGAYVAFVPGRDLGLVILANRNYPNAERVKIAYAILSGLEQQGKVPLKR
T1 sequence (P18539 22-376): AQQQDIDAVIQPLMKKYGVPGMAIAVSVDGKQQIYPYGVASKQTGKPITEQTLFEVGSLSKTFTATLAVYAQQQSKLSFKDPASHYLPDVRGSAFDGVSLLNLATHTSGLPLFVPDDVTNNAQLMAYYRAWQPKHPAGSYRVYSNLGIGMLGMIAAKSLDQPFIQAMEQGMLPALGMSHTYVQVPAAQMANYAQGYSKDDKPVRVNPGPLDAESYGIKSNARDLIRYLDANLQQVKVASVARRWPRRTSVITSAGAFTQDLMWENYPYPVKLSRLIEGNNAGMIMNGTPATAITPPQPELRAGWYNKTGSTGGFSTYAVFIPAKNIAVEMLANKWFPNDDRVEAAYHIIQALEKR

Turning to `O=C(Cc1cccs1)N[C@@H]1C(=O)N2C(C(=O)[O-])=C(C[n+]3ccccc3)CS[C@H]12` [Cephalorigine], the “relative activity value, Cephalosporinase Serratia W-8” value in experiment [1] is given as 100. For the same molecule, in experiment [2], the “relative activity value, Cephalosporinase Pseudomonas aeruginosa TN 918” value is 100. Besides, the “relative activity value, Penicillinase E. coli TK-3” value in [3] is 115.
`CCN1CCN(C(=O)N[C@@H](C(=O)N[C@]2(OC)C(=O)N3C(C(=O)O)=C(CSc4nnnn4C)CS[C@@H]32)c2ccccc2)C(=O)C1=O` [Compound No. 1, 7β-[D(-)-α-(4-ethyl-2,3-dioxo-1-piperazinylcarbonylamino)phenylacetamido]-7α-methoxy-3-[5-(1-methyl-1,2,3,4-tetrazolyl)thiomethyl]-Δ^3-cephem-4-carboxylic acid]: the “minimum inhibitory concentration (MIC)” value is listed as 12.5 in [4]; 1.56 in [5]; 50 in experiment [6]; 25 in experiment [7]; 0.78 in experiment [8]; 0.78 in experiment [9]. Moreover, the “minimum inhibitory concentration (MIC)” value is recorded as at most 0.1 in [10], 6.25 in [11], 100 in experiment [12] and 12.5 in experiment [13].
In the case of `CCN1CCN(C(=O)N[C@@H](C(=O)N[C@]2(OC)C(=O)N3C(C(=O)O)=C(CSc4nnnn4C)CS[C@@H]32)c2ccc(O)cc2)C(=O)C1=O` [Compound No. 2, 7β-[D(-)-α-(4-ethyl-2,3-dioxo-1-piperazinylcarbonylamino)-p-hydroxyphenylacetamido]-7α-methoxy-3-[5-(1-methyl-1,2,3,4-tetrazolyl)thiomethyl]-Δ^3-cephem-4-carboxylic acid], the “minimum inhibitory concentration (MIC)” value is given as 6.25 in experiment [4]; 1.56 in [5]; 100 in [6]; 100 in experiment [7]; 0.39 in experiment [8]; 0.2 in experiment [9]. For the same molecule, the “minimum inhibitory concentration (MIC)” value in [10] is on record as at most 0.1; in experiment [11] it was 6.25; in [12], 100; in [13], 6.25.
In the case of `CCN1CCN(C(=O)N[C@@H](C(=O)N[C@]2(OC)C(=O)N3C(C(=O)O)=C(CSc4nnc(C)s4)CS[C@@H]32)c2ccccc2)C(=O)C1=O` [Compound No. 3, 7β-[D(-)-α-(4-ethyl-2,3-dioxo-1-piperazinylcarbonylamino)phenylacetamido]-7α-methoxy-3-[2-(5-methyl-1,3,4-thiadiazolyl)thiomethyl]-Δ^3-cephem-4-carboxylic acid], the “minimum inhibitory concentration (MIC)” value in experiment [4] was 25; in experiment [5] it was 6.25; in experiment [6], 200; in experiment [7], 100; in [8] it was 3.13; in [9], 1.56. Also, the “minimum inhibitory concentration (MIC)” value is given as at most 0.1 in experiment [10], 12.5 in experiment [11], over 200 in experiment [12] and 100 in [13].
`CCN1CCN(C(=O)N[C@@H](C(=O)N[C@]2(OC)C(=O)N3C(C(=O)O)=C(COC(C)=O)CS[C@@H]32)c2ccccc2)C(=O)C1=O` [Compound No. 4, 7β-[D(-)-α-(4-ethyl-2,3-dioxo-1-piperazinylcarbonylamino)phenylacetamido]-7α-methoxy-3-acetoxymethyl-Δ^3-cephem-4-carboxylic acid]: the “relative activity value, Cephalosporinase Serratia W-8” value in experiment [1] was under 0.06. For the same molecule, the “relative activity value, Cephalosporinase Pseudomonas aeruginosa TN 918” value in [2] is under 0.4. For the same molecule, in experiment [3], the “relative activity value, Penicillinase E. coli TK-3” value was under 0.04. In addition, the “minimum inhibitory concentration (MIC)” value is reported as 200 in experiment [6]; 100 in experiment [7]; 1.56 in [8]; 1.56 in [9]; at most 0.1 in experiment [10]; 12.5 in experiment [11]. In [13], the “minimum inhibitory concentration (MIC)” value is 50.
For `CCN1CCN(C(=O)N[C@@H](C(=O)N[C@]2(OC)C(=O)N3C(C(=O)O)=C(COC(C)=O)CS[C@@H]32)c2ccc(O)cc2)C(=O)C1=O` [Compound No. 5, 7β-[D(-)-α-(4-ethyl-2,3-dioxo-1-piperazinylcarbonylamino)-p-hydroxyphenylacetamido]-7α-methoxy-3-acetoxymethyl-Δ^3-cephem-4-carboxylic acid], the “minimum inhibitory concentration (MIC)” value is reported as 200 in experiment [6]; 100 in experiment [7]; 3.13 in experiment [8]; 0.78 in experiment [9]; at most 0.1 in experiment [10]; 25 in experiment [11]. Also, the “minimum inhibitory concentration (MIC)” value in [12] was determined as 25; in [13], 12.5.
Consider `CC1(C)S[C@@H]2[C@H](NC(=O)Cc3ccccc3)C(=O)N2[C@H]1C(=O)O` [Potassium Penicillin G], for which the “relative activity value, Cephalosporinase Serratia W-8” value in experiment [1] was 21. Further, in experiment [2], the “relative activity value, Cephalosporinase Pseudomonas aeruginosa TN 918” value is on record as 16. Besides, in experiment [3], the “relative activity value, Penicillinase E. coli TK-3” value is reported as 100.

Values taken from patent US4200744A, “Substituted 7α-methoxy-7β[(2,3-dioxo-1-piperazinyl)carbonylaminophenylace tamido]cephalosporins” (Toyama Chemical Company, Limited, priority 1977, dated 1980).
